Assay results taken from ChEMBL document CHEMBL4354856, “Discovery of 4,6-O-Thenylidene-β-d-glucopyranoside-(2″-acetamido, 3″-acetyl-di-S-5-fluorobenzothizole/5-fluorobenzoxazole)-4'-demethylepipodophyllotoxin as Potential Less Toxic Antitumor Candidate Drugs by Reducing DNA Damage and Less Inhibition of PI3K” (J Med Chem, 2020).
Calls of active or inactive are those of the source. The calls are words filed in the database; no cut-off is given here.

Key:
HMEC [1] = assay: Cytotoxicity against human HMEC cells assessed as inhibition of cell proliferation measured after 48 hrs by MTT assay; format: cell-based
MCF7 = assay: Anticancer activity against human MCF7 cells assessed as inhibition of cell proliferation measured after 48 hrs by MTT assay; format: functional, cell-based; settings: MCF7, 48 h
MRC5 [2] = assay: Cytotoxicity against human MRC5 cells assessed as inhibition of cell proliferation measured after 48 hrs by MTT assay; format: cell-based; settings: MRC5, 48 h
L02 [3] = assay: Cytotoxicity against human HL7702 cells assessed as inhibition of cell proliferation measured after 48 hrs by MTT assay; format: cell-based; settings: L02, 48 h
[4] = target: DNA topoisomerase 2-alpha (Homo sapiens) (UniProt P11388); assay: Inhibition of human topoisomerase-2alpha mediated decatenation using kinetoplast DNA as substrate after 30 mins in presence of ATP by ethidium bromide staining-based UV imaging analysis
Sequence of DNA topoisomerase 2-alpha (Homo sapiens) (P11388 whole entry): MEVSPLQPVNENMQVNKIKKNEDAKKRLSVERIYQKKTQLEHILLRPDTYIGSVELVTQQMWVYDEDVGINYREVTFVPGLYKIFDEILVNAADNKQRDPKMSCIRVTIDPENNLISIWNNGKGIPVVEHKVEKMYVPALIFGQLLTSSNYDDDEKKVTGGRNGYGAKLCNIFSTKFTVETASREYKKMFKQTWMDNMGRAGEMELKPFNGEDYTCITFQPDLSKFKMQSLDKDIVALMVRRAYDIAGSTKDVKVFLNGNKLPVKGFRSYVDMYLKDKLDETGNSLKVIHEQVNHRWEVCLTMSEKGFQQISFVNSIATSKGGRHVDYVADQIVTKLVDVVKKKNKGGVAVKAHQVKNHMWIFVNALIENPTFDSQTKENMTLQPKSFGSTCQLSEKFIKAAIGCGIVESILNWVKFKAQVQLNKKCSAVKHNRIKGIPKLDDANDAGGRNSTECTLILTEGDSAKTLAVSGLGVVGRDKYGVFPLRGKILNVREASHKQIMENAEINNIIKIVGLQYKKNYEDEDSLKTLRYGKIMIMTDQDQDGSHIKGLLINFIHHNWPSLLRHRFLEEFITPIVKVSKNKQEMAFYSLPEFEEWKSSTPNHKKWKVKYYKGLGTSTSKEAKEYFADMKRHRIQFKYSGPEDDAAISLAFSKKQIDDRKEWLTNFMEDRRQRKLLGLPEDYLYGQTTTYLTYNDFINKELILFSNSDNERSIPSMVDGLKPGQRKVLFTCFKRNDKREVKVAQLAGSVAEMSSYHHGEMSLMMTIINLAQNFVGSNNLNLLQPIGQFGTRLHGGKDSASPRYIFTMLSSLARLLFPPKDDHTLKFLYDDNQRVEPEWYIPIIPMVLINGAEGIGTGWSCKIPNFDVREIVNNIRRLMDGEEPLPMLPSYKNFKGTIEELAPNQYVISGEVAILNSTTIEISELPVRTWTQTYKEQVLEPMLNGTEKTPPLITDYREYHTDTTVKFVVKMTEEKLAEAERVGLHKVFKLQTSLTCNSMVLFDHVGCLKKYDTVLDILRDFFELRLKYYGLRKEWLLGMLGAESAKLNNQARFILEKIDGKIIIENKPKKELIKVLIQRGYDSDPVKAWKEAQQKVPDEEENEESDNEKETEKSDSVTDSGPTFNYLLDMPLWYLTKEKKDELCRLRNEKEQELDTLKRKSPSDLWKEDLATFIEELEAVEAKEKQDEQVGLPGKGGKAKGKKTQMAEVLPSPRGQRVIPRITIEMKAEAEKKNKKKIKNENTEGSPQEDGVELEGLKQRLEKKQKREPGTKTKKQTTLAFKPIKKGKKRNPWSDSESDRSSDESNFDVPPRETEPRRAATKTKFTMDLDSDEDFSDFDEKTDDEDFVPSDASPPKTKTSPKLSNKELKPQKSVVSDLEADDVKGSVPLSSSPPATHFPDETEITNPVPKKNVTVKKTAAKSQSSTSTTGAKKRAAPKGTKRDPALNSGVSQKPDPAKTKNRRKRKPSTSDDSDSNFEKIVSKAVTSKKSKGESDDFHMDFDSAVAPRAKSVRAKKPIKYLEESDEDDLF

[5] = target: DNA topoisomerase 2-alpha (Homo sapiens) (UniProt P11388); assay: Inhibition of human topoisomerase-2alpha mediated decatenation at 50 uM using kinetoplast DNA as substrate after 30 mins in presence of ATP by ethidium bromide staining-based UV imaging analysis relative to control
HepG2 [6] = assay: Anticancer activity against human HepG2 cells assessed as inhibition of cell proliferation measured after 48 hrs by MTT assay; format: functional, cell-based; settings: HepG2, 48 h
A549 = assay: Anticancer activity against human A549 cells assessed as inhibition of cell proliferation measured after 48 hrs by MTT assay; format: functional, cell-based; settings: A549, 48 h
HeLa = assay: Anticancer activity against human HeLa cells assessed as inhibition of cell proliferation measured after 48 hrs by MTT assay; format: functional, cell-based
[7] = Cytotoxicity against human H8 cells assessed as inhibition of cell proliferation measured after 48 hrs by MTT assay; format: cell-based
HepG2 [8] = assay: Cell cycle arrest in human HepG2 cells assessed as accumulation at G2/M phase at 5 uM after 24 hrs by propidium staining based flow cytometry analysis; format: functional
HepG2 [9] = assay: Cell cycle arrest in human HepG2 cells assessed as accumulation at G2/M phase at 15 uM after 36 hrs by propidium staining based flow cytometry analysis relative to control; format: functional
L02 [10] = assay: Cell cycle arrest in human HL7702 cells assessed as accumulation at G2/M phase at 5 uM after 30 hrs by propidium staining based flow cytometry analysis relative to control; settings: l02, 30 h
HepG2 [11] = assay: Induction of apoptosis in human HepG2 cells assessed as apoptotic cells at 5 to 15 uM measured after 36 hrs by Annexin-V/propidium iodide staining based flow cytometry analysis relative to control; format: functional
HepG2 [12] = assay: Induction of apoptosis in human HepG2 cells assessed as apoptotic cells at 10 uM measured after 42 hrs by Annexin-V/propidium iodide staining based flow cytometry analysis relative to control; format: functional
L02 [13] = assay: Induction of apoptosis in human HL7702 cells assessed as apoptotic cells at 50 uM measured after 42 hrs by Annexin-V/propidium iodide staining based flow cytometry analysis relative to control; format: cell-based; settings: l02, 42 h
[14] = Acute toxicity in C57BL6 mouse assessed as effect on body weight at 100 mg/kg, ip administered for 20 days; format: organism-based; settings: in vivo, 480 h
[15] = Acute toxicity in ip dosed C57BL6 mouse assessed as mouse survival administered as single dose for 3 days and monitored for 20 days by Bliss method; format: organism-based; settings: in vivo
[16] = Acute toxicity in C57BL6 mouse assessed as effect on heart at 30 mg/kg, ip administered for 20 days and measured after 20 days by hematoxylin and eosin staining based assay; format: organism-based; settings: in vivo, 480 h
[17] = Acute toxicity in C57BL6 mouse assessed as effect on liver at 30 mg/kg, ip administered for 20 days and measured after 20 days by hematoxylin and eosin staining based assay; format: organism-based; settings: in vivo, 480 h
[18] = Acute toxicity in C57BL6 mouse assessed as effect on lung at 30 mg/kg, ip administered for 20 days and measured after 20 days by hematoxylin and eosin staining based assay; format: organism-based; settings: in vivo, 480 h
[19] = Acute toxicity in C57BL6 mouse assessed as effect on kidney at 30 mg/kg, ip administered for 20 days and measured after 20 days by hematoxylin and eosin staining based assay; format: organism-based; settings: in vivo, 480 h
HepG2 [20] = assay: Antitumor activity against human HepG2 xenografted in ip dosed BALB/c nude mouse administered for 20 days and measured after 20 days by electronic caliper method; format: functional; settings: 480 h
HepG2 [21] = assay: Antitumor activity against human HepG2 xenografted in BALB/c nude mouse assessed as tumor volume at 30 mg/kg, ip administered for 20 days and measured after 20 days by electronic caliper method (reference value: 960.20 +/- 32.10 mm3); format: functional
HepG2 [22] = assay: Antitumor activity against human HepG2 xenografted in BALB/c nude mouse assessed as tumor growth inhibition at 30 mg/kg, ip administered for 20 days and measured after 20 days by electronic caliper method relative to control; format: functional; settings: 480 h, read-out: TGI
[23] = Therapeutic index, ratio of LD50 for acute toxicity in ip dosed C57BL6 mouse assessed as mouse survival administered as single dose for 3 days and monitored for 20 days by Bliss method to ED50 for antitumor activity against human HepG2 xenografted in ip dosed BALB/c nude mouse administered for 20 days and measured after 20 days by electronic caliper method; format: organism-based; settings: in vivo, read-out: TI
[24] = target: DNA topoisomerase 2-alpha (Homo sapiens) (UniProt P11388); assay: Inhibition of human topoisomerase-2alpha mediated decatenation at 25 uM using kinetoplast DNA as substrate after 30 mins in presence of ATP by ethidium bromide staining-based UV imaging analysis
DNA topoisomerase II [25] = target: T1, DNA topoisomerase II (Homo sapiens, UniProt P11388+Q02880); assay: Poison activity at topoisomerase-2 in human HepG2 cell lysate assessed as topoisomerase-2 band depletion after 3 hrs by Western blot analysis; format: subcellular
DNA topoisomerase II [26] = target: T1, DNA topoisomerase II; assay: Poison activity at topoisomerase-2 in human HL7702 cell lysate assessed as reduction in topoisomerase-2 band depletion at 50 uM after 3 hrs by Western blot analysis; format: ADME, subcellular
HepG2 [27] = assay: Induction of DNA damage in human HepG2 cells assessed as increase in H2AX phosphorylation at 20 uM after 24 hrs by Alexa Fluor 488 staining based fluorescence assay; format: functional, cell-based
L02 [28] = assay: Genotoxicity in human HL7702 cells assessed as induction of DNA damage by measuring tail DNA at 50 uM after 24 hrs by alkaline comet assay (reference value: 3 +/- 1.1 %); format: toxicity, cell-based; settings: l02, 24 h
L02 [29] = assay: Induction of DNA damage in human HL7702 cells assessed as effect on gamma-H2AX phosphorylation at 20 uM after 24 hrs by Alexa Fluor 488 staining based fluorescence assay; format: cell-based; settings: l02, 24 h
L02 [30] = assay: Genotoxicity in human HL7702 cells assessed as induction of DNA damage at 50 uM after 24 hrs in combination of teniposide by alkaline comet assay; format: toxicity, cell-based; settings: l02, 24 h
L02 [31] = assay: Cytotoxicity against human HL7702 cells assessed as inhibition of cell proliferation measured after 48 hrs by MTT assay relative to teniposide; format: cell-based; settings: l02, 48 h
MRC5 [32] = assay: Cytotoxicity against human MRC5 cells assessed as inhibition of cell proliferation measured after 48 hrs by MTT assay relative to teniposide; format: cell-based; settings: mrc5, 48 h
HMEC [33] = assay: Cytotoxicity against human HMEC cells assessed as inhibition of cell proliferation measured after 48 hrs by MTT assay relative to teniposide; format: cell-based
Homo sapiens = species on record: Homo sapiens; assay: Induction of PI3K/AKT phosphorylation in human HL7702 cells at 25 uM after 30 hrs by Western blot analysis; format: cell-based
L02 [34] = assay: Induction of apoptosis in human HL7702 cells assessed as increase in BAX level at 25 uM after 30 hrs by Western blot analysis; format: cell-based; settings: l02, 30 h
L02 [35] = assay: Induction of apoptosis in human HL7702 cells assessed as increase in PARP cleavage at 25 uM after 30 hrs by Western blot analysis; format: cell-based; settings: l02, 30 h
HepG2 [36] = assay: Cell cycle arrest in human HepG2 cells assessed as accumulation at G2/M phase at 5 uM after 24 hrs by propidium staining based flow cytometry analysis relative to control; format: functional
HepG2 [37] = assay: Cell cycle arrest in human HepG2 cells assessed as accumulation at G2/M phase at 20 uM after 36 hrs by propidium staining based flow cytometry analysis relative to control; format: functional
L02 [38] = assay: Cell cycle arrest in human HL7702 cells assessed as accumulation at G2/M phase at 50 uM after 42 hrs by propidium staining based flow cytometry analysis relative to control; settings: l02, 42 h
L02 [39] = assay: Cell cycle arrest in human HL7702 cells assessed as accumulation at G2/M phase at 5 uM after 30 hrs by propidium staining based flow cytometry analysis; settings: l02, 30 h
HepG2 [40] = assay: Induction of apoptosis in human HepG2 cells assessed as apoptotic cells at 20 uM measured after 42 hrs by Annexin-V/propidium iodide staining based flow cytometry analysis relative to control; format: functional
[41] = Acute toxicity in C57BL6 mouse assessed as lethality at 100 mg/kg, ip administered for 4 days; format: organism-based; settings: in vivo, 96 h
L02 [42] = assay: Genotoxicity in human HL7702 cells assessed as induction of DNA damage at 50 uM after 24 hrs by alkaline comet assay; format: toxicity, cell-based; settings: l02, 24 h

Structure (SMILES): COc1cc([C@@H]2c3cc4c(cc3[C@@H](O[C@@H]3O[C@@H]5CO[C@@H](c6cccs6)O[C@H]5[C@H](OC(=O)CSc5nc6cc(F)ccc6s5)[C@H]3NC(=O)CSc3nc5cc(F)ccc5s3)[C@H]3COC(=O)[C@H]23)OCO4)cc(OC)c1O
- IC50 (HMEC [1]): 122 µM
- IC50 (MCF7): 10.8 µM
- IC50 (MRC5 [2]): 122 µM
- IC50 (L02 [3]): 121 µM
- inhibition [4]: Dose-dependent effect
- inhibition [5]: 100%
- IC50 (HepG2 [6]): 10.3 µM
- IC50 (A549): 12.6 µM
- IC50 (HeLa): 152 µM
- IC50 [7]: 120 µM
- Activity (HepG2 [8]): inactive
- Activity (HepG2 [9]): 78%
- Activity (L02 [10]): 40%
- Activity (HepG2 [11]): 30 - 55%
- Activity (HepG2 [12]): 55%
- Activity (L02 [13]): 30%
- Activity [14]: Non-Toxic
- LD50 at 480 h [15]: 208 mg/kg
- Activity [16]: Non-Toxic
- Activity [17]: Non-Toxic
- Activity [18]: Non-Toxic
- Activity [19]: Non-Toxic
- ED50 (HepG2 [20]): 32.6 mg/kg
- Activity (HepG2 [21]): 446.35 mm3
- inhibition in vivo at 30 mg/kg (HepG2 [22]): 73%
- selectivity ratio at 20 days [23]: 6.39
- inhibition [24]: Active
- IC50 (DNA topoisomerase II [25]): 116.5 µM
- Activity (DNA topoisomerase II [26]): Not Active
- Activity (HepG2 [27]): Active
- Activity (L02 [28]): 7.2%
- Activity (L02 [29]): Toxic
- Activity (L02 [30]): Toxic
- fold change (FC) (L02 [31]): 10
- fold change (FC) (MRC5 [32]): 10
- fold change (FC) (HMEC [33]): 10
- Activity (Homo sapiens): Active
- Activity (L02 [34]): Non-Toxic
- Activity (L02 [35]): Non-Toxic

Structure (SMILES): COc1cc([C@@H]2c3cc4c(cc3[C@@H](O[C@@H]3O[C@@H]5CO[C@@H](c6cccs6)O[C@H]5[C@H](O)[C@H]3O)[C@H]3COC(=O)[C@H]23)OCO4)cc(OC)c1O [TENIPOSIDE]
- IC50 (HMEC [1]): 12.4 µM
- IC50 (MCF7): 11.1 µM
- IC50 (MRC5 [2]): 12.2 µM
- IC50 (L02 [3]): 11.5 µM
- IC50 (HepG2 [6]): 4.3 µM
- IC50 (A549): 8.2 µM
- IC50 (HeLa): 14.9 µM
- IC50 [7]: 22.3 µM
- Activity (HepG2 [36]): >20%
- Activity (HepG2 [37]): 86%
- Activity (L02 [38]): 84%
- Activity (L02 [39]): Toxic
- Activity (HepG2 [40]): 71%
- Activity (L02 [13]): 88%
- Activity [41]: Toxic
- LD50 at 480 h [15]: 46.1 mg/kg
- ED50 (HepG2 [20]): 40.5 mg/kg
- Activity (HepG2 [21]): 259.15 mm3
- inhibition in vivo at 30 mg/kg (HepG2 [22]): 48%
- inhibition [24]: Active
- IC50 (DNA topoisomerase II [25]): 62.7 µM
- Activity (L02 [28]): 98.3%
- Activity (L02 [29]): Toxic
- Activity (L02 [42]): Toxic
- Activity (Homo sapiens): inactive
- Activity (L02 [34]): Toxic
- Activity (L02 [35]): Toxic
